Experiment [1] concerns UPRT(+)-microglia brains. Briefly: In vivo labeling of brain RNA in mice transplanted with UPRT-expressing human microglia, biotin dot blot. The settings on record: IP close to 150 mg/kg, 24-48 hours, FIG. 14. The protocol:
5-vinyl-uracil (Alfa Aesar #4437903) was prepared in sterile conditions at 4 times the concentration in 100% DMSO, then diluted to 25% DMSO by adding corn oil to a final concentration of 500 mM. The mixture was heated to 37° C. for […] until homogenous. Mice are weighed before intraperitoneal injection (IP) injection to ensure close to 150 mg/kg are injected per treatment. For an (˜20 g) adult mouse typically 60-70 μl are IP injected per treatment. Mice are monitored for signs of distress. After 24-48 hours of treatment, mice were sacrificed and brains were immediately placed into 2 ml of RNAlater and left in 4° C. for 3-5 days. After removing brains from RNAlater, they were homogenized with RNAse-free 1.4 mm steel beads (Next Advance SSB14B-RNA) for 60 seconds and centrifuged at 4° C. for 5 min, maximum speed to separate the fatty layer. The bottom layer is collected, homogenized with 200 ul chloroform and centrifuged for 20 minutes, at 4° C. The aqueous layer is collected and 500 ul isopropanol added. After centrifugation for 30 minutes 4° C., the RNA pellet is washed in 70% Ethanol twice. After removing ethanol, the RNA pellet is resuspended in nuclease-free water and nanodrop to determine the concentration. From each sample, 15 μg of RNA was subjected in tetrazine-biotin ligation at 37° C., 500 RPM for 3 hours. The biotinylated RNA was purified with RNA Zymo Clean and Concentrator #5 and eluted with nuclease-free water. 2 μg of purified RNA was spotted onto a N+ Hybond membrane and UV-crosslinked at 254 nm (120,000 uJ). Membrane is blocked in blocking buffer (0.12 M NaCl, 0.016 M Na2HPO4, 0.008 M NaH2PO4, 0.17 M SDS) and followed by incubation with high sensitivity streptavidin-HRP (Fisher Scientific, Cat #: P121130) at 1:5000 dilution in blocking buffer for 5 minutes. The membrane was washed twice in a Wash A buffer (1:10 dilution of blocking buffer) and twice in Wash B buffer (Tris-saline buffer). It was then incubated for 1-5 min. in ECL Chemiluminescent Substrate (Fisher Scientific, Cat #: P132106) and imaged on a ChemiDoc MP imaging system (Bio-Rad). […]

Experiment [2] deals with 3×MT-TgUPRT transfected HEK293 cells. Briefly: RNA fluorescence imaging via IEDDA (confocal microscopy). In kind it is cell-based, Toxoplasma gondii. The settings on record: 1 mM, 24 hours, tetrazene biotin + fluorophore-streptavidin, FIG. 10A. The protocol: RNA fluorescence imaging via IEDDA: The cell culture dishes and glass coverslips were coated with poly-D-lysine (10 μg/ml) for 24 h at 37° C. and washed three times with autoclaved water to remove the excessive amount of poly-D lysine. HEK293 cells were seeded on glass coverslips at 2.5×105 in a 6-well plate. Twenty-four hours post-seeding, cells were transiently transfected with 1 μg WT- or MT-TgUPRT using jetPRIME transfection reagent according to the manufacturers manual (Polyplus Transfection, France). Twenty-four hours post-transfection, cells were treated with DMSO or 1 mM 5VU for 24 hours. After labeling, cells were washed 3× with DPBS, fixed and permeabilized for 30 min at room temperature with 3.7% paraformaldehyde and 0.15% Triton-X100. Cells were then washed three times (7 min/each) on orbital shaker with DPBS, blocked with Streptavidin (2 mg/mL in DPBS) for 30 minutes and followed with BSA (1 mg/ml in DPBS, 0.45% NaCl and 0.025% NaN3) for 30 min at room temperature, washed 2× with DPBS. Blocked cells were incubated with 200-500 μL of 1 mM biotin-tetrazine solution in water for 3 hours at 37° C. […] Slides were imaged via fluorescence confocal microscopy using a 63× oil immersion objective on a […] Carl Zeiss microscope. […]

Experimental findings from patent US20240117431A1, “STEM-CELL BASED BIOMARKER DISCOVERY” (THE REGENTS OF THE UNIVERSITY OF CALIFORNIA, priority 2020, published 2024) are described below.

On to `C=Cc1c[nH]c(=O)[nH]c1=O` [compound 2, 5-Vinylpyrimidine-2,4(1H,3H)-dione], for which, in experiment [1], the “incorporation into brain RNA, UPRT(+)-microglia transplanted” value is given as “observable signals” and the “incorporation into brain RNA, UPRT(−)-microglia brains” value is on record as “significant biotin signal was not observed”. Further, the “fluorescent signal of labeled RNA” value in experiment [2] was “fluorescent signal was observed only in the presence of both 2 and 3×MT-TgUPRT transfected cells”.
